Experimental data taken from the NIST ThermoML archive (doi:10.1016/j.fluid.2012.02.005).
± gives the expanded uncertainty stated by the source.

Conditions: Liquid; Ebulliometric method (Recirculating still)

Compound | Normal boiling temperature [°C]
CC(C)=C(C)C [2,3-dimethyl-2-butene] | 73.00 ± 0.2
CCC(C)C [2-methylbutane] | 28.00 ± 0.21
Cc1ccccc1 [toluene] | 110.54 ± 0.2

Further lines, results first:

Normal boiling temperature [°C] | Compound
115.20 ± 0.2 | Cc1ccsc1 [3-methylthiophene]
98.49 ± 0.2 | CCCCCCC [heptane]
